From patent publication US20130288989A1, “NEW USE OF CHEMICAL INGREDIENTS IN CYNOMORIUM AS PHYTOESTROGEN” (TIANJIN UNIVERSITY OF TRADITIONAL CHINESE MEDICINE, priority 2010, published 2013)

Assays:
Type in all cases: cell-based
estrogen receptor = test: Estrogen receptor activation test: overall estrogen activity and ERβ versus ERα comparison; conditions: for ERβ/ERα (both % of estradiol at 10^−8M): Hela cells; for estrogen activity / estrogen receptor activation (in words): estradiol as positive control
Description: (§1) Actually, estrogens show their biological activity by regulating estrogen responding genetic transcription.
(§2) Under condition of 37° C. and 5% CO2, Hela cells were cultured in phenol red-free high sugar DMEM culture medium containing 10% calf serum in incubator, the cells were spread in 60% density on 96-well plate when cell density was about 90%, each well was added with 150 ul of phenol red-free DMEM culture medium containing 10% serum, cultivation was performed overnight. To each well of the 96-well plate, 100 ul of serum-free DMEM culture medium and 0.4 μg plasmid (ptk-ERE-luc 2 μg, tk-Renila 1 μg, ERα or ERβ 1 μg) were used for transfection. After 6 h of transfection, each well was added with 150 ul of serum-free phenol red-free DMEM culture medium. Three wells were selected form each group, added with 10^−8M estradiol E2, and substance to be tested in different concentrations, 15 ul/well (sample 4-5 concentration gradient groups), continuously cultured under condition of 37° C., 5% CO2 for 24 h. After 24 h, each well was added with 80 μl of cell disruption solution, and the cells were subjected to freeze thawing once to be sufficiently disrupted. As for the cell lysis solution of each well, its activities to firefly luciferase and Renila luciferase were separately measured.

ERα = target: T1, ERα (Homo sapiens, UniProt P03372); test: ERα luciferase reporter gene transcription activation in transfected Hela cells; conditions: for ERα (% of the control) mean ± S.D. / ERα (% of estradiol): Hela cells; for ERα (% of the control) mean ± S.D.: 24 h; for ERα (% of estradiol): estradiol at 10^−8M
T1 construct: expressed in transfected cells; host or cells: Hela cells (ER expression free)
T1 sequence (P03372 1-595): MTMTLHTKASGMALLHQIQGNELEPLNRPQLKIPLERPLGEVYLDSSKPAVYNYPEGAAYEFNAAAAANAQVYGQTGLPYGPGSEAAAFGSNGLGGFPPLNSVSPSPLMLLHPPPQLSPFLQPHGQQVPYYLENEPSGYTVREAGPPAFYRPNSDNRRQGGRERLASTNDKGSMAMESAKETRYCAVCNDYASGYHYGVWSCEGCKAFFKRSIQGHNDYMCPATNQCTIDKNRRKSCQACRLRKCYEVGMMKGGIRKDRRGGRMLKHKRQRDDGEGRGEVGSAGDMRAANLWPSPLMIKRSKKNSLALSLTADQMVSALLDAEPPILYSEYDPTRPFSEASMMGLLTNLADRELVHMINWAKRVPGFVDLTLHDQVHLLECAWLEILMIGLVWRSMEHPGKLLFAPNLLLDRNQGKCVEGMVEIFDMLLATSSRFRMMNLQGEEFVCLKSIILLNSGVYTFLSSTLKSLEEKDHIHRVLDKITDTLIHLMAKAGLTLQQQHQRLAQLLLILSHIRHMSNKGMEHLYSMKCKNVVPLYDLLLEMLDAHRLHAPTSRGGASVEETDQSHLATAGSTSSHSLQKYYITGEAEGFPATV
Source text: as §1
(§3) Formulation of sample solutions of catechin, (−)epicatechin-3-O-gallate, naringenin-4′-O-glucoside, phlorizin, emodin, chrysophanol (separately obtained from Example 1):
(§4) Catechin, (−)epicatechin-3-O-gallate, naringenin-4′-O-glucoside, phlorizin, emodin, chrysophanol in corresponding weights were separately weighed precisely, than added with DMSO for dissolution, the corresponding sample solution high dose groups (10 μM or 1 μM), were diluted in certain times to separately obtain low dose groups (1 μM to 0.001 μM).
as §2

ERβ = target: T2, ERβ (Homo sapiens, UniProt Q92731); test: ERβ luciferase reporter gene transcription activation in transfected Hela cells; conditions: for ERβ (% of the control) mean ± S.D. / ERβ (% of estradiol): Hela cells; for ERβ (% of the control) mean ± S.D.: 24 h; for ERβ (% of estradiol): estradiol at 10^−8M
T2 construct: expressed in transfected cells; host or cells: Hela cells (ER expression free)
T2 sequence (Q92731 whole entry): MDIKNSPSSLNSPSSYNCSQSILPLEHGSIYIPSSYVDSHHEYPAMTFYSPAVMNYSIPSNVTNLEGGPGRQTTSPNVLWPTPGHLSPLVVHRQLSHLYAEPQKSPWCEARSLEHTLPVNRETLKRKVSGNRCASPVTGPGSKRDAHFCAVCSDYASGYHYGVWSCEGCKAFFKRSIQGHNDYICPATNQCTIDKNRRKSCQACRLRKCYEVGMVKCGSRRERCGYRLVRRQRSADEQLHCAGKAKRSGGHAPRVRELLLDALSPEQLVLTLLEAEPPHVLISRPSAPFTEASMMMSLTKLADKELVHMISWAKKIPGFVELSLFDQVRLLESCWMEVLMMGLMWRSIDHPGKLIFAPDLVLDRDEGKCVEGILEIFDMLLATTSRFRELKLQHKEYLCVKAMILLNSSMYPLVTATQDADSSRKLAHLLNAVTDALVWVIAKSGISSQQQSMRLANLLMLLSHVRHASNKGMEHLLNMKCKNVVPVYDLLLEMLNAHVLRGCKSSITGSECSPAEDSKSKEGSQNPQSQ
Source text: as §1, §3, §4, §2

Row | Structure (SMILES) | ERβ/ERα (both % of estradiol at 10^−8M) (estrogen receptor; sample 10^−6 M) | ERβ/ERα (both % of estradiol at 10^−8M) (estrogen receptor; sample 10^−7 M) | ERβ/ERα (both % of estradiol at 10^−8M) (estrogen receptor; sample 10^−8 M) | ERβ/ERα (both % of estradiol at 10^−8M) (estrogen receptor; sample 10^−9 M) | ERα (% of the control) mean ± S.D. (ERα; 10^−6 M) | ERα (% of estradiol) (ERα; 10^−6 M) | ERα (% of the control) mean ± S.D. (ERα; 10^−7 M) | ERα (% of estradiol) (ERα; 10^−7 M) | ERα (% of the control) mean ± S.D. (ERα; 10^−8 M) | ERα (% of estradiol) (ERα; 10^−8 M) | ERα (% of the control) mean ± S.D. (ERα; 10^−9 M) | ERα (% of estradiol) (ERα; 10^−9 M) | ERβ (% of the control) mean ± S.D. (ERβ; 10^−6 M) | ERβ (% of estradiol) (ERβ; 10^−6 M) | ERβ (% of the control) mean ± S.D. (ERβ; 10^−7 M) | ERβ (% of estradiol) (ERβ; 10^−7 M) | ERβ (% of the control) mean ± S.D. (ERβ; 10^−8 M) | ERβ (% of estradiol) (ERβ; 10^−8 M) | ERβ (% of the control) mean ± S.D. (ERβ; 10^−9 M) | ERβ (% of estradiol) (ERβ; 10^−9 M) | further results
1 | O=C(O[C@@H]1Cc2c(O)cc(O)cc2O[C@@H]1c1ccc(O)c(O)c1)c1cc(O)c(O)c(O)c1 [(−)Epicatechin-3-O-gallate, (−)epicatechin-3-O-gallate] | 0.90 | 0.93 | 0.97 | 0.94 | 192.40 ± 27.72 % of the control | (90.43) % of estradiol | 200.50 ± 13.72 % of the control | (94.24) % of estradiol | 170.00 ± 13.87 % of the control | (79.90) % of estradiol | 121.95 ± 10.76 % of the control | (57.32) % of estradiol | 148.13 ± 4.22 % of the control | (81.56) % of estradiol | 159.55 ± 28.00 % of the control | (87.84) % of estradiol | 131.16 ± 15.95 % of the control | (77.72) % of estradiol | 97.75 ± 17.66 % of the control | (53.82) % of estradiol | ERβ/ERα (both % of estradiol at 10^−8M) (estrogen receptor; sample 10^−5 M): 0.94; estrogen activity / estrogen receptor activation (in words) (estrogen receptor; listed as (−) epicatechin-3-O-gallate): show relevance to estrogen receptor activation; estrogen activity / estrogen receptor activation (in words) (estrogen receptor; listed as (−)epicatechin-3-O-gallate): potent activity of estrogen; selectivity to receptor subtypes (ERα vs ERβ) (estrogen receptor; result in words): a higher selectivity to ERα than ERβ; ERα (% of the control) mean ± S.D. (ERα; 10^−5 M): 171.88 ± 22.57 % of the control; ERα (% of estradiol) (ERα; 10^−5 M): (80.79) % of estradiol; concentration at which the transcriptional activity of ERα is agonized (ERα; luciferase reporter gene): 10^−8-10^−5 M; concentration of the highest ERα transcription activity (ERα; luciferase reporter gene): 10^−7 M; ERβ (% of the control) mean ± S.D. (ERβ; 10^−5 M): 137.80 ± 15.93 % of the control; ERβ (% of estradiol) (ERβ; 10^−5 M): (75.87) % of estradiol; concentration at which the transcriptional activity of ERβ is agonized (ERβ; luciferase reporter gene): 10^−8-10^−5 M; concentration of the highest ERβ transcription activity (ERβ; luciferase reporter gene): 10^−7 M
2 | Cc1cc(O)c2c(c1)C(=O)c1cccc(O)c1C2=O [Chrysophanol, chrysophanol] | 1.19 | 1.03 | 1.16 | 1.25 | 122.89 ± 8.94 % of the control | (51.51) % of estradiol | 97.77 ± 8.47 % of the control | (40.98) % of estradiol | 80.15 ± 13.88 % of the control | (33.59) % of estradiol | 84.53 ± 14.21 % of the control | (35.43) % of estradiol | 120.43 ± 12.98 % of the control | (61.26) % of estradiol | 83.12 ± 4.78 % of the control | (42.28) % of estradiol | 76.85 ± 8.82 % of the control | (39.09) % of estradiol | 86.99 ± 23.16 % of the control | (44.25) % of estradiol | 
3 | Cc1cc(O)c2c(c1)C(=O)c1cc(O)cc(O)c1C2=O [Emodin, emodin] | 1.03 | 1.00 | 1.00 | 1.07 | 146.40 ± 18.07 % of the control | (64.01) % of estradiol | 109.96 ± 11.33 % of the control | (48.07) % of estradiol | 108.48 ± 27.45 % of the control | (47.43) % of estradiol | 101.27 ± 15.90 % of the control | (44.27) % of estradiol | 145.21 ± 8.06 % of the control | (65.63) % of estradiol | 106.60 ± 10.76 % of the control | (48.18) % of estradiol | 104.92 ± 9.08 % of the control | (47.42) % of estradiol | 104.68 ± 13.96 % of the control | 47.31 % of estradiol | estrogen activity / estrogen receptor activation (in words) (estrogen receptor): show relevance to estrogen receptor activation; selectivity to receptor subtypes (ERα vs ERβ) (estrogen receptor; result in words): no receptor selectivity; concentration at which the transcriptional activity of ERα is agonized (ERα; luciferase reporter gene): 10^−6 M; concentration at which the transcriptional activity of ERβ is agonized (ERβ; luciferase reporter gene): 10^−6 M
4 | O=C1C[C@@H](c2ccc(O[C@@H]3O[C@H](CO)[C@@H](O)[C@H](O)[C@H]3O)cc2)Oc2cc(O)cc(O)c21 [Naringenin-4′-O-glucoside, naringenin-4′-O-glucoside] | 1.07 | 1.13 | 1.18 | 1.29 | 198.72 ± 3.99 % of the control | (97.08) % of estradiol | 182.34 ± 5.97 % of the control | (89.08) % of estradiol | 157.62 ± 14.54 % of the control | (77.00) % of estradiol | 110.04 ± 5.59 % of the control | (53.76) % of estradiol | 207.11 ± 15.76 % of the control | (104.30) % of estradiol | 200.66 ± 5.22 % of the control | (101.06) % of estradiol | 180.98 ± 10.46 % of the control | (91.14) % of estradiol | 137.90 ± 9.40 % of the control | (69.45) % of estradiol | ERβ/ERα (both % of estradiol at 10^−8M) (estrogen receptor; sample 10^−5 M): 1.18; estrogen activity / estrogen receptor activation (in words) (estrogen receptor): show relevance to estrogen receptor activation; estrogen activity / estrogen receptor activation (in words) (estrogen receptor; listed as naringenin-4′-β-glucoside): potent activity of estrogen; dose dependence of agonism of ERα and ERβ transcriptional activity (estrogen receptor; result in words): in a dose dependent manner; selectivity to receptor subtypes (ERα vs ERβ) (estrogen receptor; result in words): a higher selectivity to ERβ than ERα; ERα (% of the control) mean ± S.D. (ERα; 10^−5 M): 188.07 ± 18.61 % of the control; ERα (% of estradiol) (ERα; 10^−5 M): (91.88) % of estradiol; concentration at which the transcriptional activity of ERα is agonized (ERα; luciferase reporter gene): 10^−9-10^−5 M; ERβ (% of the control) mean ± S.D. (ERβ; 10^−5 M): 215.85 ± 22.32 % of the control; ERβ (% of estradiol) (ERβ; 10^−5 M): (108.71) % of estradiol; concentration at which the transcriptional activity of ERβ is agonized (ERβ; luciferase reporter gene): 10^−9-10^−5 M
